# “And” between values parts separate entries of the source, which are not always exact repeats. Identical values can stand only once. Like-named read-outs stand apart in the source and are kept apart here.
# Tests used:
# [1] = test system: form deprivation myopia (FDM) guinea pig model; assay: FDM guinea pig model, systemic (gavage) administration; assay type: in vivo; conditions: for axial length difference between the eyes / vitreous chamber depth difference between the eyes / refraction difference between the eyes / body weight: FDM; for refraction difference between the eyes: end of treatment (2 weeks); for body weight / mean weight decrease vs solvent group: vinpocetine 50 mg/kg/d gavage
# From the text: The form deprivation myopia animal model and the method for evaluating the efficacy of vinpocetine for myopia treatment used in this experiment were the same as other relevant embodiments (local administration) in this application. Among them, the establishment of a guinea pig model of form deprivation myopia (FDM) and the gavage administration were manipulated and performed referring to the published literature in the inventor's laboratory. […] On the first day of the experiment, form deprivation (FD) myopia modeling began at 8 a.m. on the guinea pigs. The form deprivation myopia model adopted the mask method. The hood was made by the inventors using a 10-inch milky white non-toxic latex balloon. The right eye of the individual guinea pig for modeling was covered by the hood (experimental eye), and the left eye was not covered by the hood (contralateral eye). FD induction was continued during the entire vinpocetine efficacy experiment cycle by gavage administration, and the hood was only briefly removed during eye testing (such as refraction testing). […] The administration route was gavage administration. […] Administration was performed once a day for 2 weeks. […] 2017). Without adding other pharmaceutical excipients or other compounds, the inventors directly and completely dissolved the vinpocetine compound powder in 0.5% methylcellulose solvent (sterile water+methylcellulose) to prepare a vinpocetine preparation (gavage liquid) at 10 mg/mL and 20 mg/mL. The overall appearance of the preparation at room temperature was clear, transparent, and uniform, with no suspended matter visible to the naked eye. The preparation process of the preparation may use conventional physical and chemical solubilization means such as heating, stirring, and pH adjustment as appropriate, and no compounds would precipitate before administration of the preparation.
# [2] = rats; cited from earlier work
# rabbits = conditions: rabbit, in vivo, cited from earlier work
# [3] = test system: choroid of FDM guinea pigs; assay: choroidal thickness and blood flow by OCTA, FDM group; assay type: in vivo, guinea pig
# Method: The choroidal blood flow parameters and choroidal thickness were measured for the animals in the above FDM group after 1 week of continuous administration and at the end of the 2 week-administration experiment and for the animals in the LIM group at the end of the 7 day-administration experiment. Choroidal blood flow parameters and thickness were measured using a modified commercial OCTA (Spectralis HRA+OCT, OCTA, Heidelberg, Germany) which is more suitable for animal eyeballs. Before the measurement, the guinea pigs were fully anesthetized (a mixture of ketamine hydrochloride 60 mg/kg and xylazine hydrochloride 9 mg/kg, intraperitoneally injected), and then the guinea pig OCTA images were obtained, and the measurement results were quantified through a self-written program (MatLab R2017a, MathWorks). Real-time quantitative detection of choroidal blood flow and thickness in guinea pigs was achieved (Sen Zhang, Invest Ophthalmol Vis Sci. 2019 Jul. 1; 60(8):3074-3083).
# Vinpocetine is known to improve blood circulation. The inventors used the method of example 1 to detect changes of indicator signals of choroidal thickness ChT and choroidal blood flow ChBP of FDM (1 week and 2 weeks of administration) and LIM (1 week of administration) at different time points during the administration cycle.
# [4] = test system: form deprivation myopia model of guinea pigs; assay: FDM guinea pig model, eye drops (non-invasive administration); assay type: in vivo; conditions: for refraction difference between the eyes: FDM
# Method: The purpose of this experiment was to evaluate the effect of vinpocetine on myopia through non-invasive administration. All tested drugs were formulated into eye drops. […] No other active substances or excipients were added to the above eye drops.
# [5] = vinpocetine 50 mg/kg gavage, 2 weeks
# [6] = vinpocetine 100 mg/kg gavage, 2 weeks
# [7] = vinpocetine 5 μM eye drops, 2 weeks
# [8] = vinpocetine 5 μM eye drops, 2 weeks (rounded and actual value)
smiles,measurement,setting,value
CCOC(=O)C1=C[C@]2(CC)CCCN3CCc4c(n1c1ccccc41)[C@@H]32 [vinpocetine],axial length difference between the eyes,[1]; [5],0.13±0.05 mm
same,vitreous chamber depth difference between the eyes,[1]; [5],0.13±0.07 mm
same,refraction difference between the eyes,[1]; vinpocetine 50 mg/kg gavage,−5.71±2.41 D
same,body weight,[1]; 1 week,188 ± 22.9 g
same,body weight,[1]; 2 weeks,210 ± 21.9 g
same,axial length difference between the eyes,[1]; [6],0.11±0.05 mm
same,vitreous chamber depth difference between the eyes,[1]; [6],0.10±0.06 mm
same,refraction difference between the eyes,[1]; vinpocetine 100 mg/kg gavage,−5.223±2.20 D
same,mean weight decrease vs solvent group,[1]; 1 week,9.9%
same,mean weight decrease vs solvent group,[1]; 2 weeks,8.4%
same,oral bioavailability,[2],52%
same,toxicity findings,rabbits; 75 mg/kg/day,without any obvious abnormalities
same,toxicity findings,rabbits; 150 mg/kg,toxic effects of weight loss and food intake reduction
same,choroidal thickness ChT,"[3]; 1 and 2 weeks, vs solvent injection group, not statistically significant",only slightly increased
same,choroidal blood perfusion ChBP,"[3]; 1 and 2 weeks, vs solvent injection group, p=0.285",only slightly increased
same,effect on choroidal vasodilation compared with atropine,"[3]; vinpocetine 0.1 μM, 2 weeks",not as good as atropine
same,improvement of choroidal blood flow among vinpocetine concentrations,"[3]; vinpocetine 1 μM, 1 week",least effective at improving choroidal blood flow
same,refraction difference between the eyes,"[4]; vinpocetine 1 μM eye drops 25 μL twice a day, 2 weeks",−4.81±1.72 D
same,refraction difference between the eyes,"[4]; vinpocetine 5 μM eye drops 25 μL twice a day, 2 weeks",−3.80±1.16 D
same,refraction inhibition rate,"[4]; vinpocetine 1 μM eye drops, 2 weeks",26.7%
same,inhibition rate for the axial length,[4]; [7],41.4%
same,inhibition rate for the vitreous chamber depth,[4]; [7],38.6%
same,refraction inhibition rate,[4]; [7],42.1%
same,axial length difference between the eyes,[4]; [8],0.09±0.04 mm and 0.0925±0.0406 mm
same,vitreous chamber depth difference between the eyes,[4]; [8],0.09±0.04 mm and 0.0869±0.0448 mm

# From patent US20240165089A1, “METHOD FOR TREATING MYOPIA WITH VINPOCETINE” (EYE HOSPITAL, WENZHOU MEDICAL UNIVERSITY, priority 2021, published 2024)
